Reference: patent US20260232610A1 (priority 2023, published 2026)
Like-named read-outs stand apart in the source and are kept apart here.

Legend:
[1] = system: necrotic enteritis (Clostridium perfringens inoculations); format: in vivo, male Ross 308 broilers; conditions: for NE score: four chickens per pen
[2] = system: E. acervulina; assay: Coccidiosis lesion scoring (Johnson and Reid, 0-4); format: in vivo, male Ross 308 broilers; conditions: score 0 (no lesions) to 4 (severe lesions)
[3] = system: E. maxima; assay: Coccidiosis lesion scoring (Johnson and Reid, 0-4); format: in vivo, male Ross 308 broilers; conditions: score 0 (no lesions) to 4 (severe lesions)
[4] = system: experimentally induced NE (Eimeria spp. and Clostridium perfringens challenge); format: in vivo, male Ross 308 broilers
[5] = system: Eimeria (overall coccidiosis lesions); assay: Overall coccidiosis lesions (TMLS); format: in vivo, male Ross 308 broilers
[6] = compared to some amino acids such as glycine or arginine; cited from earlier work
[7] = day 16 to day 22, challenge period

N=C(N)NCC(=O)O [GAA, guanidinoacetic acid]
NE percentage (percentage of NE affected birds) ([1]; day 21): 85 | NE score ([1]; day 21): 3.52 | NE percentage (percentage of NE affected birds) ([1]; day 22): 73 | NE scores and percentage of NE affected birds compared with untreated control ([1]; day 22): lower NE scores and a lower percentage of NE affected birds | NE score ([1]; day 22): 2.33 | E. acervulina (lesion score) ([2]; day 21): 0.08 | E. acervuline (lesion score) ([2]; day 22): 0.06 | E. maxima (lesion score) ([3]; day 21): 0.52 | E. maxima (lesion score) ([3]; day 22): 0.88 | Effect on daily feed intake (DFI) over untreated birds ([4]; any period (p>0.05) except a small effect in the pre-challenge period): no significant effect | FCR compared with untreated birds ([4]; challenge period and overall): significantly lower | Daily weight gain (DWG) compared with IUC birds ([4]; challenge period from day 16 to d22): significantly higher | BW_D0 (body weight) ([4]; day 0, before challenge, treatment mean): 46 | DFI_D0-D16 (daily feed intake) ([4]; day 0 to day 16, pre-challenge): 45.9 | DWG_D0-D16 (daily weight gain) ([4]; day 0 to day 16, pre-challenge): 41.0 | FCR_D0-D16 (feed conversion ratio) ([4]; day 0 to day 16, pre-challenge): 1.12 | DFI_D0-D42 (daily feed intake) ([4]; day 0 to day 42, overall): 112.1 | DWG_D0-D42 (daily weight gain) ([4]; day 0 to day 42, overall): 62.6 | FCR_D0-42 (feed conversion ratio) ([4]; day 0 to day 42, overall): 1.80 | BW_D16 (body weight) ([4]; day 16, treatment mean): 711 | DFI_D16-D22 (daily feed intake) [4, 7]: 84.4 | DWG_D16-D22 (daily weight gain) [4, 7]: 72.2 | FCR_D16-D22 (feed conversion ratio) [4, 7]: 1.18 | BW_D22 (body weight) ([4]; day 22, after NE challenge, treatment mean): 1161 | DFI_D22-D34 (daily feed intake) ([4]; day 22 to day 34): 117.3 | DWG_D22-D34 (daily weight gain) ([4]; day 22 to day 34): 75.3 | FCR_D22-D34 (feed conversion ratio) ([4]; day 22 to day 34): 1.56 | BW_D34 (body weight) ([4]; day 34, treatment mean): 2463 | DFI_D34-D42 (daily feed intake) ([4]; day 34 to day 42): 191.0 | DWG_D34-D42 (daily weight gain) ([4]; day 34 to day 42): 108.7 | FCR_D34-D42 (feed conversion ratio) ([4]; day 34 to day 42): 1.77 | BW_D42 (body weight) ([4]; day 42, treatment mean): 3332 | Weight gained more than the negative control ([4]; grower phase): approximately 9 g/day | Weight gained more than the negative control ([4]; overall): approximately 2 g/day | Percentage of NE related mortalities ([4]; overall, on par with antibiotics treated control): strongly reduced | NE related mortality ([4]; percentage of NE related mortalities, overall): 3.33 | E. maxima and coccidiosis lesions compared with untreated control ([5]; day 21): lower amounts | TMLS (overall coccidiosis lesions) ([5]; day 21): 0.60 | TMLS (overall coccidiosis lesions) ([5]; day 22): 0.94 | Solubility in water [6]: rather low solubility in water
